The numbers were not newly measured in patent US20230405125A1, “TREATMENT OF RECURRENT GIOBLASTOMA WITH PERILLYL ALCOHOL” (NeOnc Technologies, Inc., priority 2020, published 2023), which cites them from elsewhere.

Entries after “also recorded” stand apart in the source; their conditions may differ. Read-outs that look alike come from different tables or passages of the source.

Data set [1] has as its system patients with recurrent malignant gliomas.
Data set [2] has as its system patients with different solid tumors. The note with it: oral POH.
Data set [3] concerns the target farnesyl-protein transferase (FPT) (Homo sapiens, UniProt P49354+P49356).
[4] abbreviates: Reardon et al. (CheckMate 143) 2020.

In the case of `O=NN(CCCl)C(=O)NC1CCCCC1` [Lomustine], in the data set on recurrent GBM patients (Batchelor et al. 2013), the OS-6 is recorded as 70%, the OS-9 was 52%, the OS-12 is 41% and the “median OS” value is on record as 9.8 months.
For the compound “Bevacizumab: humanized monoclonal antibody against VEGF (vascular endothelial growth factor)”, in the data set on recurrent GBM patients (Field et al. (CABARET) 2015), the OS-6 was 61%, the OS-9 was 39%, the OS-12 was 24% and the “median OS” value is listed as 7.5 months. Further, in the data set on recurrent GBM patients (Heiland et al. 2016), the OS-6 is given as 18%, the OS-12 is 10% and the “median OS” value is listed as 4.1 months. Besides, in the data set with recurrent GBM patients (Taal et al. (BELOB) 2014), the OS-6 is 64%, the OS-9 was 38%, the OS-12 was 26% and the “median OS” value was 8.0 months.
Consider “Nivolumab: fully human monoclonal antibody targeting the programmed death-1 (PD-1) immune checkpoint receptor”, for which, in the data set with recurrent GBM patients (setting [4]), the OS-6 is given as 72%, the OS-9 is 52%, the OS-12 is reported as 42% and the “median OS” value is on record as 9.8 months.
Take `C=C(C)[C@@H]1CC=C(CO)CC1` [POH]: the “six month progression free survival rate” value in data set [1] (intranasal commercial grade POH with solvent cocktail, 150 patients) is listed as 50%. Further, in data set [1] (intranasal commercial-grade POH), the radiographic response result is on record as “Radiographic regression”. Also, the “tolerability / adverse effects” value in data set [1] (intranasal commercial-grade POH, four times daily) is recorded as “minimal side effect; also recorded: good tolerance; also recorded: no severe adverse effects”. In data set [2], the anti-cancer efficacy entry is reported as “limited” and the tolerability entry is on record as “Gastrointestinal toxicity proved dose-limiting”. Also, the tolerability entry in data set [2] (listed as perillyl alcohol) is recorded as “poorly tolerated”. For the same compound, the “effect on FPT enzymatic activity” value in data set [3] was “inhibit”.
Regarding `CCOP(=O)(OCC)C(C)NC(=O)N(CCCl)N=O` (stereo not drawn) [Fotemustine], in the data set on recurrent GBM patients (human, in vivo), the OS-6 is given as 73%, the OS-9 is reported as 47%, the OS-12 was 40% and the “median OS” value is given as 8.7 months.
